Assay results as given in US6911470B1, “Polyoxometalate compounds as antiviral agents” (priority 1988, dated 2005).
Where two headings read alike, the source gives them in different places.

Tests used:
[1] = test system: human granulocyte-macrophage precursor cells; format: cell-based
From the text: Preparation of Cells. Human bone marrow cells were collected by aspiration from the posterior iliac crest of normal healthy volunteers, treated with heparin and the mononuclear population separated by Ficoll-Hypaque gradient centrifugation. Cells were washed twice in Hanks balanced salt solution, counted with a hemacytometer and their viability was >98% as assessed by trypan blue exclusion.
Assay of Colony-Forming Unit Granulocyte-Macrophage (CFU-GM) for Drug Cytotoxicity. The culture assay for CFU-GM was performed using a bilayer soft-agar method as recently described (Sommadossi et al, Antimicrob. Agents Chemother. 31, 452-454, 1987). McCoy 5A nutrient medium supplemented with 15% dialyzed fetal bovine serum (heat inactivated at 56° C. for 30 min.) (Gibco Laboratories, Grand Island, N.Y.) was used in all experiments. This medium was completely lacking in thymidine and uridine. Cells were cloned in 0.3% agar in the presence of increasing concentrations of the modulating compound or in medium alone (control). After 14 days of incubation at 37° C. in a humidified atmosphere of 5% CO2 in air, colonies (≧50 cells) were counted using an inverted microscope.
The toxicities of a variety of polyoxometalates with respect to human bone marrow cells (human granulocyte-macrophage precursor cells) were assessed.

[2] = test system: HIV-1 (strain LAV-1); test: microbe, parasite or virus in culture; format: cell-based
Method: Cells. Human peripheral blood mononuclear cells (PBMC) from healthy HIV-1 seronegative and hepatitis B virus seronegative donors were isolated by Ficoll-Hypaque discontinuous gradient centrifugation at 1,000×g for 30 minutes, washed twice in phosphate-buffered saline (pH 7.2; PBS), and pelleted at 300×g for 10 minutes. Before infection, the cells were stimulated by phytohemagglutinin (PHA) at a concentration of 6 μg/ml for three days in RPMI 1640 medium supplemented with 15% heat-inactivated fetal calf serum, 1.5 mM L-glutamine, penicillin (100 U/ml), streptomycin (100 μg/ml), and 4mM sodium bicarbonate buffer.
Viruses. HIV-1 (strain LAV-1) was obtained from Dr. P. Feorino (Centers for Disease Control, Atlanta, Ga.). The virus was propagated in human PBMC using RPMI 1640 medium, as described previously (McDougal et al, J. Immun. Meth. 76, 171-183, 1985) without PHA and supplemented with 7% v/v interleukin-2 (Advanced Biotechnologies, Silver Spring, Md.), 7 μg/ml DEAE-dextran (Pharmacia, Uppsala, Sweden), and 370 U/ml anti-human leucocyte (alpha) interferon (ICN, Lisle, Ill.). Virus obtained from cell-free culture supernatant was titrated and stored in aliquots at −80° C. until use.
Inhibition of virus replication in human PBMC. Uninfected PHA-stimulated human PBMC were uniformly distributed among 25 cm^2 flasks to give a 5 ml suspension containing about 2×10^6 cells/ml. Suitable dilutions of virus were added to infect the cultures. The mean reverse transcriptase (RT) activity of the inocula was 50,000 decompositions per min/ml corresponding to about 100 TCID50, as determined by Groopman et al. (Groopman et al, AIDS Res. Human Retro. 3, 71-85, 1987. The drugs at twice their final concentrations in 5 ml of RPMI 1640 medium, supplemented as described above, were added to the cultures. Uninfected and untreated PBMC at equivalent cell densities were grown in parallel as controls. The cultures were maintained in a humidified 5% CO2-95% air incubator at 37° C. for six days after infection, at which point all cultures were sampled for supernatant reverse transcriptase (RT) activity.
RT activity assay. Six ml supernatant from each culture was clarified from cells at 300×g for 10 minutes. Virus particles were pelleted from 5 ml samples at 40,000 rpm for 30 minutes using a Beckman 70.1 Ti rotor and suspended in 200 μl of virus disrupting buffer (50 mM Tris-Cl, pH 7.8, 800 mM NaCl, 20% glycerol, 0.5 mM phenylmethyl sulfonyl fluoride, and 0.5% Triton X-100).
The RT assay was performed in 96-well microtiter plates, as described by Spira et al. (Spira et al, J. Clin. Microbiol. 22, 97-99, 1987). The reaction mixture, which contained 50 mM Tris-Cl pH 7.8, 9 mM MgCl2, 5 mM dithiothreitol (DTT), 4.7 μg/ml (rA)n. (dT)12-18, 140 μM dATP, and 0.22 μM [^3H]TTP, specific activity 78.0 Ci/mmol, equivalent to 17,300 cpm/pmol; NEN Research Products, Boston, Mass., was added to each well. The sample (20 μl) was added to the reaction mixture which was then incubated at 37° C. for 2 hours. The reaction was terminated by the addition of 100 μl 10% trichloroacetic acid (TCA) containing 0.45 mM sodium pyrophosphate. The acid-insoluble nucleic acids which precipitated were collected on glass filters using a Skatron semi-automatic harvester. The filters were washed with 5% TCA and 70% ethanol, dried, and placed in scintillation vials. Four ml of scintillation fluid (Econofluor, NEN Research Products, Boston, Mass.) were added and the amount of radioactivity in each sample was determined using a Packard Tri-Carb liquid scintillation analyzer (model 2,000CA). The results were expressed in dpm/ml of original clarified supernatant.
Median-effect method. Dose-effect relationships were analyzed by the median-effect equation (Chou et al, Adv. Enz. Regul. 22, 27-55, 1984).

[3] = reason it must be taken intravenously; cited from earlier work
[4] = Comparison of toxicity of polyoxometalate compounds in mice (mortality, haematology); format: in vivo; parameters: MCV (mean corpuscular volume): unit not given here; conditions: BID × 6, 60 mkd i.p.
From the text: Comparison of Toxicity of Polyoxometalate Compounds Mice.
In vivo antiviral experiments. […] Treatment was continued daily for 6 or 10 days.

[5] = test system: human bone marrow cells; conditions: background statement; cited from earlier work
[6] = background statement; AZT in a clinical setting; cited from earlier work
[7] = test system: human PBM cells; test: Cytotoxicity assay on uninfected PHA stimulated human PBMC (trypan blue); format: cell-based; conditions: Table 1; read-out: IC50 Toxicity in Human PBM Cells
Method: Cells. […] PBS), and pelleted at 300×g for 10 minutes. […] Cytotoxicity assay. The drugs were evaluated for their potential toxic effects on uninfected PHA stimulated human PBMC. Flasks were seeded so that the final cell concentration was 2×10^5 cells/ml. The cells were cultured with and without drug for 6 days, at which time aliquots were counted for cell viability, as assessed by the trypan blue dye-exclusion method using a hemacytometer. The median inhibitory concentration (IC50) was calculated using the median effect method (Chou et al, Elsevier-Biosoft, Elsevier Science Publishers, Cambridge, U.K., 1985; Chou et al, Adv. Enz. Regul. 22, 27-55, 1984). Median-effect method. Dose-effect relationships were analyzed by the median-effect equation (Chou et al, Adv. Enz. Regul. 22, 27-55, 1984). The slope (m) and median effective and inhibitory concentration (EC50 and IC50) values were obtained by using a computer program developed by Chou and Chou (Chou et al, Elsevier-Biosoft, Elsevier Science Publishers, Cambridge, U.K., 1985).

[8] = molecular target: T1, HIV-1 reverse transcriptase (Human immunodeficiency virus type 1 group M subtype B, UniProt P04585); test: Evaluation of compounds on purified retroviral RT (cell-free, virion-derived); format: biochemical; conditions: Table 2; read-out: EC-50 Cell-Free RT (virion-derived)
T1 construct: HIV-1 RT was isolated from detergent disrupted virions; made in house; host or cells: virions pelleted from culture fluid of HIV-1-infected PHA-stimulated human PBMC; DEAE-cellulose and phosphocellulose chromatography
Method: Evaluation of compounds on purified retroviral RT. HIV-1 RT was isolated from detergent disrupted virions obtained from the cell-free supernatant of infected PHA-stimulated PBMC. The enzyme was purified by passing the extract through ion-exchange chromatography columns, as described previously (Eriksson et al, Antimicrob. Agents Chemother. 31, 600-604, 1977. Briefly, 750 ml of culture fluid harvested from HIV-1-infected PBMC were ultracentrifuged to pellet the virus. The pellet was dissolved in buffer A [50 mM Tris-HCl, pH 7.9/0.25% Nonidet P-40/5 mM dithiothreitol/20% (vol/vol) glycerol] containing 1 mM EDTA, and freeze-thawed four times. After clarification by centrifugation, the enzyme was partially purified from the supernatant by passing the extract through a DEAE-cellulose column (Whatman DE-52; 2.6×15 cm) previously equilibrated with buffer B (50 mM Tris-Cl, pH 7.9, 50 mM KCl, 1 mM EDTA, 1 mM dithiothreitol, 20% glycerol). Elution was performed using a linear gradient 50-500 mM KCl in buffer B. Fractions containing enzyme activity were dialyzed against buffer B and were further purified on a phosphocellulose column (Whatman P-11) using a linear KCl (50-500 mM) gradient in buffer B. The peak fractions were pooled and dialyzed against buffer B. The enzyme was characterized as HIV-1 reverse transcriptase based on its cation, salt, pH, and template requirements according to previous descriptions (Eriksson et al, Antimicrob. Agents Chemother. 31, 600-604, 1977). The standard reaction mixture was used to evaluate the inhibitory effect of the drugs, as previously described (Eriksson et al, Antimicrob. Agents Chemother. 31, 600-604, 1977). Briefly, the reaction mixtures (final volume 100 μl) contained 100 mM Tris-HCl, pH 8.0, 50 mM KCl, 2 mM MgCl2, 5 mM DTT, 400 ug/ml bovine serum albumin, 3 μg/ml (rA)·(dT)12-18 and 1 μM of [^3H]TTP (specific activity 82.3 Ci/mmol). The reactions were started by the addition of 10 μl of partially purified RT, incubated at 37° C. for 60 min., and processed as previously described (Eriksson et al, Antimicrob. Agents Chemother. 31, 600-604, 1977).
Median-effect method. Dose-effect relationships were analyzed by the median-effect equation (Chou et al, Adv. Enz. Regul. 22, 27-55, 1984). The slope (m) and median effective and inhibitory concentration (EC50 and IC50) values were obtained by using a computer program developed by Chou and Chou (Chou et al, Elsevier-Biosoft, Elsevier Science Publishers, Cambridge, U.K., 1985).

[9] = test system: Mouse Ecotropic, CNS (CAS-Br-M); test: UV/XC assay for murine retroviruses in SC-1 cells; format: cell-based, murine retrovirus; conditions: Table 2; read-out: EC-50 Mouse Ecotropic, CNS (CAS-Br-M)
Method: UV/XC Assay for Murine Retroviruses Cells. Mouse embryo fibroblasts (SC-1) and XC cells were obtained from the American Type Culture Collection, Rockville, Md. […] The cells were maintained in Eagle's minimum essential medium with Hanks balanced salt solution, supplemented with penicillin (100 U/ml), streptomycin (100 μg/ml), sodium bicarbonate (24 mM), Hepes (25 mM), and either 2 (maintenance) or 10 (growth) percent inactivated newborn or fetal calf serum.
Virus quantitation by UV-XC assay. The XC test (Rowe et al, Virology 42, 1136-1139, 1970) is a plaque-type of assay which tests for the presence and titer of B- and N-tropic murine leukemia viruses. Because these viruses produce no overt signs of infection of SC-1 mouse cells, it is necessary to overlay the virus producing culture with an indicator cell line, XC. The number of syncytia that are produced is a direct measure of the virus titer in FFU.
Six-well plates were seeded with 1×10^5 SC-1 mouse cells on the first day. On the following day the medium was removed and the inoculum (0.2 ml) was added in medium containing polybrene (4 μg/ml). For determining the antiviral activity of the compounds in culture, the virus dilution selected produced in untreated cultures about 80 foci per well. […] Control cells without virus but receiving the drug provided an estimate of the drug's toxic effects as quantitated by using trypan blue staining.

[10] = Table 2, several values per cell, some in brackets, read-out: EC-50 HIV-1 (LAV-1)

With “(NH4)17Na[NaSbgW21O86] [Formula 1, reference compound]” the “toxicity to human bone marrow cells (order of toxicity, FIG. 6)” value [1] was “most toxic”, the EC50 ([2]; Table 1, read-out: EC50 Anti-HIV-1 Activity in Human PBM Cells) was 390 nM and the EC50 [2, 10] was 290 nM. The “pH at which it degrades” value [3] was under 4, the “Hct (hematocrit)” value ([4]; bled on day 17) was 14.82 ± 4.44% and the “Hgb (hemaglobin)” value ([4]; bled on day 17) was 5.5 ± 1.43 g/dL. For the same substance, the MCH ([4]; bled on day 17) was 17.64 ± 2.07 pg, the “MCHC (mean corpuscular hemoglobin concentration)” value ([4]; bled on day 17) was 37.66 ± 4.32 g/dL and the “MCV (mean corpuscular volume)” value ([4]; bled on day 17) was 46.86 ± 0.4. For the same substance, the “PLT (platelates) (×1000)” value ([4]; bled on day 17) was 226.4 ×1000, the “RBC (×1000000)” value ([4]; bled on day 17) was 3.16 ± 0.95 ×1000000 and the “RDW (width of red cells)” value ([4]; bled on day 17) was 35.6 ± 2.12%. The “WBC (×1000)” value ([4]; bled on day 17) was 4.16 ± 1.45 ×1000, the Mortality ([4]; dead/total) was 0/5 and the “toxicity to human bone marrow cells” value [5] was “high toxicity”. The adverse effect [6] was “induces thrombocytopenia” and the IC50 [7] was 35000 nM.
For K5BW12O40 [α-K5BT], the EC50 [8] was 2900 nM, the EC50 [9] was 910 nM and the EC50 [2, 10] was 360 nM.
